Assay results taken from US20070059778A1, “Modified colony assay” (priority 2005, published 2007).

Test system: erythroid colonies (hematopoietic progenitors)
Assay: Hematopoietic CFC assay with anti-GpA-FITC staining, erythroid colony formation in cultures containing 5-FU
Format: cell-based, Human
Conditions: erythroid colonies stained with anti-GPA-FITC, day 14, densitometry
Description: Human BM, CB or MPB mononuclear cells were suspended in a methylcellulose-based culture medium containing cytokines (MethoCult™ H4434, StemCell Technologies) (StemCell Technologies Methocult™ Flyer; StemCell Technologies 2003 Catalogue pp. 86-125) at a concentration of between 1×10^4 and 1×10^5 cells per 1.1 mL of medium. The culture medium was then dispensed into 35 mm culture dishes using 3 mL syringes with blunt end needles, with 1.1 mL of medium per dish. All cultures were incubated for a total of 14 days at 37° C., 5% CO2, 100% humidity. Colonies were enumerated and classified by bright-field microscopy into the following categories based on size and morphology: CFU-E, BFU-E, CFU-GM, CFU-GEMM (StemCell Technologies Colony Atlas).
Standard CFC assays were prepared as described in example 1. […] After 14 days of culture at 37° C. the dishes were inspected using an inverted fluorescence microscope. […] The erythroid colonies were counted using bright field and fluorescence. Both methods gave very similar results: 27 colonies per dish by bright field illumination; 26 colonies by fluorescence.
A CFC-assay was set up as described in Example 2. […] Colonies were examined and photographed on day 14 and colony size and fluorescence intensity were analysed by densitometry.

With `O=c1[nH]cc(F)c(=O)[nH]1` [5-FU, 5-Fluoro-Uracil] the “size of fluorescent colonies, as measured by surface area and perimeter length” value (versus cultures without 5-FU (FIG. 4A)) was “decreased” and the “fluorescence intensity of colonies” value (versus cultures without 5-FU (FIG. 4B)) was “decreased”.
